This assay has as its system intestinal polyps (adenomas). In words: Min mouse intestinal polyp test procedure emulating familial adenomatous polyps (FAP); polyps counted on day 61. It is filed as in vivo, Min mouse (C57BL/6J-Min/+). An excerpt:
The procedure described below emulates familial adenomatous polyps (FAP) in humans using the Min mouse (C57BL/6J-Min/+), which is a strain which has […] of the APC gene. These animals develop multiple intestinal polyps (adenomas) that ultimately progress to form adenocarcinomas. The polyps that develop in Min mice express EGFR and have activated COX-2.
Test animals were divided into four treatment groups: Group I, control; Group II, N-[4-[(3-bromophenyl)amino]-6-quinazolinyl]-2-butynamide; Group III, sulindac; and Group IV, combination of sulindac and N-[4-[(3-bromophenyl)amino]-6-quinazolinyl]-2-butynamide (hereinafter referred to as the NSAID/EGFR kinase inhibitor combination). The test compound was blended with a standard murine chow and animals were given ad libitum access to the food, in quantities corresponding to the following approximate daily dosages: Group II - 40 mg/kg/day N-[4-[(3-bromophenyl)amino]-6-quinazolinyl]-2-butynamide; […]; and Group IV - 40 mg/kg/day N-[4-[(3-bromophenyl)amino]-6-quinazolinyl]-2-butynamide and 20 mg/kg/day sulindac. The animals were treated for 60 days. The food was weighed once per week to determine consumption, and the animals also weighed weekly. On day 61, the animals were euthanized with CO2 inhalation, and the entire intestinal tract from stomach to anus was removed. The intestinal tract was injected with Bouins fixative, and allowed to fix for several days. The intestinal tracts were then opened and the number of polyps counted. Statistical analysis was performed using the Student's t-Test; a p value of ≤ 0.05 is considered statistically significant.
The animals were treated for 60 days. The food was weighed once per week to determine consumption, and the animals also weighed weekly. On day 61, the animals were euthanized with CO2 inhalation, and the entire intestinal tract from stomach to anus was removed. The intestinal tract was injected with Bouins fixative, and allowed to fix for several days. The intestinal tracts were then opened and the number of polyps counted. Statistical analysis was performed using the Student's t-Test; a p value of ≤ 0.05 is considered statistically significant.

For the compound `CCOc1cc2ncc(C#N)c(Nc3ccc(F)c(Cl)c3)c2cc1NC(=O)C=CCN(C)C` [4-dimethylamino-but-2-enoic acid [4-(3-chloro-4-fluoro-phenylamino)-3-cyano-7-ethoxy-quinolin-6-yl]-amide], the reduced polyp numbers (third run, alone, 20 mg/kg, 60 days, versus control) came out at 87%. Regarding `CC#CC(=O)Nc1ccc2ncnc(Nc3cccc(Br)c3)c2c1` [N-[4-[(3-bromophenyl)amino]-6-quinazolinyl]-2-butynamide], the “Number of Polyps” value (Group II: 40 mg/kg/day in chow, 60 days, control Group I 32.3 ± 20.7) was determined as 15.6 ± 10.6. Take `CC1=C(CC(=O)O)c2cc(F)ccc2/C1=C\c1ccc([S+](C)[O-])cc1` (centres unmarked) [sulindac]: the “Number of Polyps” value by setting is: (Group III: 20 mg/kg/day sulindac in chow, 60 days, control Group I 32.3 ± 20.7) 10.0 ± 6.6; (third run, Group III: 5 mg/kg/day sulindac in chow, 60 days, control Group I 19.5 ± 14.1) 20.6 ± 11.8. Also, the “polyp numbers (result in words)” value (third run, sulindac alone at the 5mg/kg dose) is “did not reduce polyp numbers at all”.

The values are drawn from patent publication EP1202746B1, “NSAID AND EGFR KINASE INHIBITOR CONTAINING COMPOSITION FOR THE TREATMENT OR INHIBITION OF COLONIC POLYPS AND COLORECTAL CANCER” (Wyeth Holdings Corporation, priority 1999, dated 2001).
